Experimental data: patent US7425579B2, “Methods for inhibiting activity of polyamine transporters” (Universite Laval, priority 1998, dated 2008)

Key:
CHO-K1 cells [1] = assay: Reversal of DFMO-induced cytostasis by exogenous spermidine in CHO-K1 cells; assay type: cell-based, Chinese hamster
Method: FIGS. 8A and 8B are graphs representing the time course of the effect of a compound used in a method according to a preferred embodiment of the invention on rescue of DFMO-induced cytostasis by exogenous spermidine. In particular, at time zero, T-47D (panel A) or CHO-K1 (panel B) were seeded at 1×10^4 or 5×10^3 cells/well, respectively, in medium containing 1 mM aminoguanidine, plus either 0.3 μM spermidine (Spd, ●), 2 mM DFMO (□), Spd+DFMO (▪), 50 μM (A) or 100 μM (B) BNSD-X (Δ), BNSD-X+Spd (▴), BNSD-X+DFMO (□), BNSD-X+Spd+DFMO (▾), or vehicle only (∘). At the indicated time, total DNA content/well was determined. Data are presented as the mean±SD for triplicate cultures from one representative experiment;
(§1) To determine the ability of polyamine transport antagonists to potentiate DFMO-induced inhibition of cell proliferation in the presence of exogenous polyamines, cells were grown for the indicated period in growth medium supplemented with 1 mM aminoguanidine, and either DFMO (1 to 5 mM), the indicated transport inhibitor (50 or 100 μM), or the combination thereof, as well as increasing concentrations of spermidine (0.1 to 300 μM). Fresh medium was added every other day, and cell mass was determined at various time points during the period of exponential growth, or at the end of the experimental period. For the latter experiments, the FBS supplement was replaced with dextran-coated charcoal-treated FBS (5%, v/v) plus 0.5 μg/ml insulin in the case of T-47D, ZR-75-1 and MCF-7 cells (U.S. Pat. No. 6,083,496).

CHO-MG cells = assay: Potentiation of DFMO-induced cytostasis in polyamine transport-deficient CHO-MG cells; assay type: cell-based, Chinese hamster; details: 2 mM DFMO; 4 d; polyamine transport mutant
Method: FIGS. 9A and 9B are graphs showing that potentiation of DFMO-induced cytostasis by a compound used in a method according to a preferred embodiment of the invention requires a functional polyamine transport system. In particular, CHO-TOR cells (A) and their polyamine transport-deficient mutant subline CHO-MG (B) were grown in medium containing 1 mM aminoguanidine and the indicated concentration of spermidine, in the presence of 2 mM DFMO (●), BNSD-X (□), DFMO+BNSD-X (▪), or vehicle only (∘). Cells were harvested after 4 d for determination of total DNA/well. Data are presented as the mean±SD for triplicate cultures from one representative experiment;
as §1, with “For the latter experiments, the FBS supplement was replaced with dextran-coated charcoal-treated FBS (5%, v/v) plus 0.5 μg/ml insulin in the case of T-47D, ZR-75-1 and MCF-7 cells (U.S. Pat. No. 6,083,496).” left out

[2] = system: polyamine transport system; assay: Time course of [3H]spermidine accumulation in ZR-75-1 cells; assay type: cell-based, human; details: after 8 h
Method: In particular, exponentially growing T-47D (A) or ZR-75-1 cells (B and C) were transferred to serum-free medium containing 5 μM [^3H]spermidine, and either 200 μM cycloheximide (CHX) (●), 100 μM BNSD-X (□), CHX plus BNSD-X (▪), or vehicle only (∘). Cells were incubated for the time intervals indicated prior to harvesting for detrmination of total intracellular radioactivity. ZR-75-1 cells were either pre-incubated for 48 h in the absence (panel B) or presence of 1 mM DFMO (panel C) prior to the experiment shown; DFMO was also included during the labeling period in the appropriate group. Data are presented as the mean±SD for triplicate cultures from one representative experiment;
The effect of BNSD-X on the time course of [^3H]spermidine accumulation was determined in ZR-75-1 and T-47D cells pre-incubated in the presence or absence of DFMO before addition of radioactive substrate and the transport inhibitor. Subgroups of cell cultures were also treated with cycloheximide in order to prevent the polyamine-dependent induction of ODC antizyme, which rapidly down-regulates polyamine transport activity through an unknown mechanism (Lessard et al. (1995) J. Biol. Chem. 270, 1685-1694; Coffino et al. (2001) Nat Rev Mol Cell Biol. 2:188-194). […]

[3] = Plasma level of BNSD-X after gavage; assay type: in vivo, mice; details: solid BNSD-X, 1 g/kg body weight by gavage
CHO-K1 cells [4] = assay: Determination of intracellular polyamine contents in CHO-K1 cells; assay type: cell-based, Chinese hamster
Method: At the indicated time, cells were harvested for the determination of putrescine (A), spermidine (B) and spermine contents (C). Data are presented as the mean±SD for triplicate cultures from one representative experiment; […] At the indicated time intervals, medium was removed, cell monolayers were rinsed twice: with 10 ml of ice-cold Ca^2+/Mg^2+-free phosphate-buffered saline (PBS) (2.7 mM KCl, 1.5 mM KH2PO4, 8.1 mM Na2HPO4, 137 mM NaCl), and cells were harvested by low-speed centrifugation (2400 g for 5 min at 4° C.). […] Polyamine content was then determined by ion-pair reverse phase HPLC with fluorometric detection after post-column derivatization with o-phthaldialdehyde as described (U.S. Pat. No. 6,083,496). […] Pat. No. 6,083,496).

CD-1 mice = assay: Chronic toxicity of BNSD-X, 1% in drinking water for 14 d; assay type: in vivo; details: 1% (w/v) in drinking water
Method: To assess the relative toxicity of BNSD-X, the drug was administered as a 1% (w/v) solution in the drinking water to CD-1 mice with ad libitum access for 14 d. Mice were weighed every other day during the experiment. At the end of the experiment, mice were sacrificed, and organs (kidneys, liver, and spleen) were immediately weighed. Organs were then saved in 10% formalin for morphological examination by an in-house pathologist at the CHUL Research Center (Quebec City, Canada). Acute and subacute oral toxicity of BNSD-X was also separately determined by administering the drug by gavage (0-5 g/kg body weight).
The chronic toxicity of BNSD-X was next evaluated by allowing CD-1 mice to drink a 1% (w/v) solution of the drug for 14 d, and then sacrificing animals for the histological examination of the liver, kidneys and spleen.

NCCCN(CCCN)Cc1ccc(CN(CCCN)CCCN)cc1 [28a, N,N,N′,N′-tetrakis-(3-aminopropyl)-p-diaminoxylene]
effect on the antiproliferative action of DFMO in the nominal absence of exogenous polyamines, CHO-K1 (CHO-K1 cells [1]; 100 μM BNSD-X, 2 mM DFMO): strongly potentiated the antiproliferative effect of DFMO
effect on spermidine-mediated reversal of DFMO-induced growth inhibition, CHO-K1 (CHO-K1 cells [1]; DFMO-treated CHO-K1 cells with extracellular spermidine, data not shown): afforded increased resistance to exogenous spermidine
potentiation of DFMO-induced cytostasis in the absence of exogenous spermidine, CHO-MG (CHO-MG cells): not in the polyamine transport mutant
inhibition of spermidine accumulation, without cycloheximide ([2]; BNSD-X:spermidine 20:1): 65%
inhibition of spermidine accumulation, with cycloheximide ([2]; BNSD-X:spermidine 20:1, 200 μM cycloheximide): 90%
plasma half-life [3]: > 6 h
plasma concentration after gavage ([3]; after 1 h, n=5): 450 ± 71 nM
reduction of intracellular spermidine content by BNSD-X alone (CHO-K1 cells [4]; 100 μM, over the first 2 days of incubation): about 50%
effect on intracellular putrescine content (CHO-K1 cells [4]; single agent): quickly led to putrescine depletion
effect on intracellular spermine content (CHO-K1 cells [4]; up to 4 days): no significant effect on spermine content
behavior and general body appearance (CD-1 mice): no incidence on the behavior nor general body appearance of the animals
histological morphology of the liver, kidney and spleen (CD-1 mice; light microscopy): no observable differences
